In patent publication US20230338285A1, “PHARMACEUTICAL COMPOSITION COMPRISING HYDROXYCHLOROQUINE AND USES THEREOF” (priority 2020, published 2023):
Read-outs that look alike come from different tables or passages of the source.

Experiments:
[1] = Solubility in propylene glycol and solvent mixtures by LC-HR-MS; assay type: physicochemical; details: for Accuracy (ratio of measured concentration to calculated concentration): propylene glycol, 40° C.
Protocol: Chloroquine and hydroxychloroquine were synthesized according to published procedures at WuXi AppTec (Wuhan, China). […] The solubility of HCQ in propylene glycol (PG) was evaluated by preparing formulations at various concentrations and assessing their solubility by performing liquid chromatography-high resolution-mass spectrometry (LC-HR-MS). The solubility of HCQ in PG was measured at 40° C. and atmospheric pressure (~100 kPa) -Table 1a.
The solubility of HCQ in different solvent mixtures comprising propylene glycol (PG); glycerol and/or water was evaluated by preparing formulations and assessing the solubility of HCQ by performing liquid chromatography-high resolution-mass spectrometry (LC-HR-MS) as shown in Table 1b.

[2] = Aerosol particle size distribution (Aerodynamic Particle Sizer); assay type: physicochemical; details: thermal aerosol from 100 mg/mL in propylene glycol, heater 200-220° C.
Protocol: A liquid formulation containing a solution of hydroxychloroquine in propylene glycol at a concentration of 100 mg/mL was prepared and filled into a consumable cartridge.
The liquid formulation was nebulized using a device comprising a mesh heating element as described in WO2018153608 (A1). Aerosol from the liquid formulation was generated by thermal aerosolization. The temperature of the heater was maintained between 200-220° C. A programmable dual syringe pump (PDSP) with a simulated inhalation regimen of 55 mL delivered in 3 sec puff duration and 30 sec interval (including the subsequent discharge from the pump during piston down stroke) was used to transfer the aerosol. The PDSP pump was attached to a SUPER SESI (Fossilion Technologies, Madrid, SP) interfaced with Q Exactive HF system (Thermo Fisher Scientific, Waltham, MA, USA) as shown in FIG. 2.
The particle size distribution of the aerosols was measured using the TSI 3321 Aerodynamic Particle Sizer (APS, TSI Incorporated, Shoreview, MN, USA). To reach the operational flowrate of 5 L/min and to stay within the limits of detection concerning large particle number densities obtained in the experiment, the […] was connected with a 3302A Aerosol Diluter (TSI Incorporated), upstream of the APS using a 30 cm conductive tube with a 1-cm inner diameter (FIG. 3). […]

[3] = Thermal decomposition during thermal aerosolization (LC-HR-MS); assay type: physicochemical; details: LC-HR-MS of aerosol trapped on Cambridge pad filter
Protocol: Using the described aerosol generation and characterization setup, the aerosol produced from the device was pushed through the Cambridge filter pad connected to an impinger filled with 5 mL of ethanol to assess the transfer amount of hydroxychloroquine from the liquid to the aerosol. Compound extraction from the Cambridge filter pads was performed by adding 5 mL of ethanol from the impinger and another 5 mL of fresh ethanol to the filter pad. The two fractions were combined (total volume of 10 mL) for quantification. Chemical analyses for drug solubility and transfer rate assessment were performed by liquid chromatography equipped with a HILIC BEH amide column (50 × 3 mm, 1.7 µm, Waters, Manchester, UK) coupled to high resolution accurate mass spectrometry (Vanquish Duo - Q Exactive HF system, LC-HR-MS, ThermoFisher Scientific, Waltham, MA, USA). Mobile phases were composed of acetonitrile containing 0.1% formic acid and 10 mM ammonium formate. Samples were diluted to fit the calibration curve built from 9-calibrant levels (5-100 ng/mL). A volume of 5 µL diluted solution was injected. Mass spectrometry detection was realized in positive electrospray ionization with a mass resolution of 60,000 by scanning full scan mass from m/z 50-350.

[4] = tested on: SARS-CoV-2 clinically isolated strain; details: cited from earlier work; for EC50: Vero cells, Yao et al.
[5] = tested on: 2019-nCoV; details: block of COVID-19 infection in vitro, Wang et al.; read-out: half-maximal effective concentration (EC50); cited from earlier work

Compound | Solubility ([1]; Mix 1: propylene glycol 75%, glycerol 20%, water 5%) [mg/mL] | Solubility ([1]; Mix 2: propylene glycol 75%, glycerol 15%, water 10%) [mg/mL] | Solubility ([1]; Mix 3: propylene glycol 45%, glycerol 45%, water 10%) [mg/mL] | Solubility ([1]; Mix 4: propylene glycol 90%, glycerol 10%, water 0%) [mg/mL] | Solubility ([1]; Mix 5: propylene glycol 90%, glycerol 0%, water 10%) [mg/mL] | Solubility ([1]; Mix 6: propylene glycol 85%, glycerol 0%, water 15%) [mg/mL] | Solubility ([1]; Mix 7: propylene glycol 95%, glycerol 0%, water 5%) [mg/mL] | Solubility ([1]; Mix 8: propylene glycol 100, glycerol 0%, water 0%) [mg/mL] | Accuracy (ratio of measured concentration to calculated concentration) ([1]; calculated concentration 1.3 mg/mL) [%] | Accuracy (ratio of measured concentration to calculated concentration) ([1]; calculated concentration 10.2 mg/mL) [%] | Accuracy (ratio of measured concentration to calculated concentration) ([1]; calculated concentration 20.9 mg/mL) [%] | Accuracy (ratio of measured concentration to calculated concentration) ([1]; calculated concentration 40.6 mg/mL) [%] | Accuracy (ratio of measured concentration to calculated concentration) ([1]; calculated concentration 100.6 mg/mL) [%] | median aerodynamic diameter of aerosol particles [2] [µm] | decomposition during thermal aerosolization [3] | EC50 ([4]; 24 hours) [µM] | EC50 ([4]; 48 hours) [µM] | in vitro EC50 ([4]; value from Yao et al.) [ng/mL] | in vitro EC90 ([4]; value from Yao et al.) [ng/mL] | EC50 [5] [nM]
hydroxychloroquine | 151 | 141 | 42 | 150 | 324 | 261 | 322 | 139 | 78 | 103 | 104 | 92 | 96 | 1.3 | no decomposition | 6.14 | 0.72 | 242 | 1680 | –
CCN(CC)CCCC(C)Nc1ccnc2cc(Cl)ccc12 (centres unmarked) [chloroquine] | – | – | – | – | – | – | – | – | – | – | – | – | – | – | – | – | – | – | – | 1130
